We go through 2 molecules from patent US7704943B2, “Transglutaminase for inhibiting angiogenesis” (Aston University, priority 2000, dated 2010).

In one assay the test system is ECV304 cells. As to the kind of experiment: in vitro angiogenesis/tubulogenesis model, ECV304 cells co-cultured with C378 fibroblasts. It is filed as cell-based, human. From the text: An in vitro system of angiogenesis/tubulogenesis was developed to evaluate the efficacy of TGase administration on angiogenesis. […] In the model cell system described below, ECV304 cells were co-cultured with the primary human dermal fibroblast cell line C378 (isolated from human foreskin), which provides the appropriate biochemical information to stimulate the differentiation of ECV304 to form capillary-like structures.
ECV304 cell lines S3 (a neomycin resistant transfected control cell line phenotypically similar to wild type cells) and B4 (a tTGase antisense transfected cell line [Jones, R. A., et al., 1997, J. Cell Sci. 110, 2461-2472]) and C378 were routinely cultured in Dulbecco's Modified Eagles Media (DMEM) supplemented with 2 mM glutamine and 10% (v/v) foetal calf serum (FCS). Cells were harvested by exposure to 0.25% (w/v) bovine trypsin in phosphate buffered saline (PBS) pH 7.4, and collected cells were washed in normal culture media, counted and seeded into the appropriate tissue culture vessel. Standard angiogenesis experiments were performed in 12-well cell culture plates, and 2×10^4 ECV304 cells and 2×10^4 C378 cells were seeded into 1 ml of normal growth media. For immunochemical staining experiment, 2×10^3 cells of each cell type were seeded into […] of growth medium in 8-well glass chamber slides. Co-cultures were incubated at 37° C. in a humidified atmosphere containing 5% (V/V) CO2, and tubules were allowed to develop spontaneously over a 14-day period, with regular changes of growth media every 72 hours.
For cultures treated with purified tTGase, a dose response with 1, 10 and 50 μg […] liver transglutaminase (gplTGase) was performed with two separate dosing regimes. gplTGase was activated by pre-incubation with 10 mM DTT on ice for one hour prior to its addition to cultures. The highest amount of DTT present in the cultures was 0.5 mm for the 50 μg gplTGase treatment, and control cultures were treated with DTT accordingly. In some experiments, cultures were treated with two administrations of exogenous enzyme on day 1 and day 4 of the experiment. Further studies extended the dose regime to include five gplTGase treatments, on days 1, 4, 7, 10 and 13.
Non-specific protein binding was blocked by incubating fixed cells with 300 μl of 3% (w/v) bovine serum albumin (BSA) overnight at 4° C. Blocked plates were then incubated with the primary antisera (see table 5), diluted in the above buffer, for 2 hours at 37° C. with gentle shaking. Next, plates were washed three times and incubated with the appropriate species-specific secondary antibody (see table 5) conjugated to Horseradish peroxidase (HRP) for 2 hours at 37° C. with gentle shaking. […]

In the next assay the test system is rat dermal wound. To be noted: addition of exogenous enzyme, rat dermal wound healing; cited from earlier work.

As for `Cc1ccc(C(=O)Nc2ccc(S(=O)(=O)O)c3cc(S(=O)(=O)O)cc(S(=O)(=O)O)c23)cc1NC(=O)c1cccc(NC(=O)Nc2cccc(C(=O)Nc3cc(C(=O)Nc4ccc(S(=O)(=O)O)c5cc(S(=O)(=O)O)cc(S(=O)(=O)O)c45)ccc3C)c2)c1` [suramin], the “microtubule formation (collagen type I, UEA-1 and tTGase staining)” value in the assay with ECV304 cells (10 μM, compared to untreated cells) is recorded as “significantly reduced”. The microtubule formation result in the assay on ECV304 cells (100 μM) and in the assay with ECV304 cells (200 μM) was “completely eradicated” in each case. The “angiogenesis (FIG. 4, tubules stained for collagen type I, UEA-1, tTGase)” value in the assay with ECV304 cells (standard angiogenesis inhibitor, positive control) was “inhibition of angiogenesis”.

B1: recombinant tTGase: exogenous recombinant tissue transglutaminase used in the study of Haroon et al 1999 (protein, UniProt P21980 2-687, looked up)
Protein-glutamine …: AEELVLERCDLELETNGRDHHTADLCREKLVVRRGQPFWLTLHFEGRNYEASVDSLTFSVVTGPAPSQEAGTKARFPLRDAVEEGDWTATVVDQQDCTLSLQLTTPANAPIGLYRLSLEASTGYQGSSFVLGHFILLFNAWCPADAVYLDSEEERQEYVLTQQGFIYQGSAKFIKNIPWNFGQFEDGILDICLILLDVNPKFLKNAGRDCSRRSSPVYVGRVVSGMVNCNDDQGVLLGRWDNNYGDGVSPMSWIGSVDILRRWKNHGCQRVKYGQCWVFAAVACTVLRCLGIPTRVVTNYNSAHDQNSNLLIEYFRNEFGEIQGDKSEMIWNFHCWVESWMTRPDLQPGYEGWQALDPTPQEKSEGTYCCGPVPVRAIKEGDLSTKYDAPFVFAEVNADVVDWIQQDDGSVHKSINRSLIVGLKISTKSVGRDEREDITHTYKYPEGSSEEREAFTRANHLNKLAEKEETGMAMRIRVGQSMNMGSDFDVFAHITNNTAEEYVCRLLLCARTVSYNGILGPECGTKYLLNLNLEPFSEKSVPLCILYEKYRDCLTESNLIKVRALLVEPVINSYLLAERDLYLENPEIKIRILGEPKQKRKLVAEVSLQNPLPVALEGCTFTVEGAGLTEEQKTVEIPDPVEAGEEVKVRMDLLPLHMGLHKLVVNFESDKLKAVKGFRNVIIGPA
Take B1: the vessel length density result in the assay on rat dermal wound is on record as “increase in vessel length density”.
